Laboratory results published in patent US20160326098A1, “Pharmaceutically Active Compound for Use as Anti-inflammatory Agent” (Pax Forschung GmbH, priority 2013, published 2016).
Values belong to the molecule of their own block, whether it stands above or below them.

Legend:
Type in all cases: in vivo
[1] = Body weight, mice with gastric injury without inflammation; settings: 1.11 mmol/kg force-fed, one day after gavage, FIG. 2
Method: First experiments regarding the effect of the compound of formula (I) and a pharmaceutical composition comprising the compound of formula (I) (clear aqueous solution of compound of formula (I) at pH 4.8), respectively, on gastric injury without inflammation were conducted on mice. 48 animals were randomly allocated into three groups. Group A (n=16) served as sham-operated controls. Samples of all animals were drawn on day 1 of the clinical tests. On day 2 the animals of group B (n=16) were force-fed acetylsalicylic acid (ASS) (1.11 mmol/kg body weight). Group C (n=16) was force-fed 1.11 mmol/kg body weight of the compound according to the invention. Group A only received the respective solvent (25% ethanol in water). One day after the gavage, additional samples were drawn. Fluorescence confocal endomicroscopy was performed to examine the microvasculature and morphologic changes of the mucosa of the distal colon, and full-thickness tissue samples and venous blood samples were taken to determine the biochemical changes in the colon and plasma. The effects were determined by way of measurement of body weight, blood gas analysation and biopsy. ASS was chosen as a comparative example due to its structural similarity and its known activity as anti-inflammatory agent.

[2] = system: myeloperoxidase (MPO); assay: Tissue myeloperoxidase activity, mice with gastric injury without inflammation; settings: gastric and duodenal tissue, one day after treatment with 1.11 mmol/kg, vs control group A, FIGS. 5a/5b
Method: […] The homogenate was centrifuged at 4° C. for 20 minutes at 24,000 g, and the supernatant was loaded into centrifugal tubes (Amicon Centricon-100; 100,000-molecular-weight cutoff ultrafilter, Millipore Corporation, Bedford, Mass.). The activity of myeloperoxidase (MPO) was measured on the pellet of the homogenate.
The activity of MPO as a marker of tissue leukocyte infiltration was measured on the pellet of the homogenate. Briefly, the pellet was resuspended in K3PO4 buffer (0.05 M; pH 6.0) containing 0.5% […]. […] The reaction led to the hydrogen peroxide-dependent oxidation of tetramethylbenzidine, which could be detected spectrophotometrically at 450 nm (UV-1601 spetrophotometer; Shimadzu, Kyoto, Japan). Myeloperoxidase activities were measured at 37° C.; the reaction was stopped after 5 minutes by the addition of 0.2 ml of H2SO4 (2 M), and the resulting data were referred to the protein content.
First experiments regarding the effect of the compound of formula (I) and a pharmaceutical composition comprising the compound of formula (I) (clear aqueous solution of compound of formula (I) at pH 4.8), respectively, on gastric injury without inflammation were conducted on mice. […] The effects were determined by way of measurement of body weight, blood gas analysation and biopsy. […]

[3] = system: xanthine oxidase enzyme; assay: Xanthine oxidase enzyme activity in tissue, rats with TNBS-induced colitis; settings: gastric and colon tissue, 1.11 mmol/kg, FIGS. 33a/33b
Method: (§1) Colonic inflammation was induced by intracolonic administration of TNBS (2,4,6-trinitrobenzenesulfonic acid) (40 mg/kg in 0.25 ml of 25% aqueous ethanol) through an 8-cm-long soft plastic catheter under transient diethylether anesthesia. In the sham-operated groups, only the vehicle for TNBS was administered. The animals were deprived of food, but not water, for 12 h before the enemas.
The XOR activity was determined in the ultrafiltered, concentrated supernatant by fluorometric kinetic assay based on the conversion of pterine to isoxanthopterine in the presence (total XOR) or absence (xanthine oxidase activity) of the electron acceptor methylene blue.
(§2) The above-described clinical studies were repeated with animals having colitis which was induced as described above. […] Two days after the enema the effects of the treatment were determined by measurement of body weight, blood gas analysis and biopsy. […] Surgery was performed to allow registration of the hemodynamic parameters at 1 h intervals for 6 h (cardiac output [CO] data were measured only at the end of the experiments). […] In addition, fluorescence confocal endomicroscopy was performed to examine the microvasculature and morphologic changes of the mucosa of the distal colon, and full-thickness tissue samples and venous blood samples were taken to determine the biochemical changes in the colon and plasma.

[4] = system: nitrite/nitrate (NOx); assay: Nitrite/nitrate level in blood, rats with TNBS-induced colitis; settings: 1.11 mmol/kg, vs groups L and M, FIG. 34
Method: as §1
The levels of plasma nitrite/nitrate (NOx), stable end products of NO were measured by the Griess reaction. This assay depends on the reduction of nitrate to nitrite, which is then converted into a colored azo dye compound that is detected spectrophotometrically at 540 nm.
as §2

- nitrite/nitrate level in the blood [4]: increased nitrite/nitrate level
Structure (SMILES): CC(=O)Oc1ccccc1C(=O)O [ASS, acetylsalicylic acid, reference compound]
- change in body weight [1]: severe loss of body weight
- myeloperoxidase (MPO) activity [2]: increased
- activity of xanthine oxidase enzyme [3]: only a slight decrease in activity

Structure (SMILES): CC(=O)Oc1ccccc1C(=O)NC(CO)(CO)CO [compound according to the invention]
- change in body weight [1]: only showed a minor loss in body weight
- myeloperoxidase (MPO) activity [2]: does not further enhance the inflammatory processes
- activity of xanthine oxidase enzyme [3]: enzyme activity comparable to that of healthy animals
- nitrite/nitrate level in the blood [4]: nitrite/nitrate levels comparable to those of healthy animals
